According to ChEMBL document CHEMBL4020735, “Design, synthesis, and evaluation of multitarget-directed ligands against Alzheimer's disease based on the fusion of donepezil and curcumin” (Bioorg Med Chem, 2017):
Activity calls are given as the source filed them. The calls are words filed in the database; no cut-off is given here.

Legend:
Acetylcholinesterase = Acetylcholinesterase (Electrophorus electricus, UniProt O42275)
Description: Inhibition of electric eel AChE using acetylthiocholine iodide as substrate preincubated for 15 mins followed by substrate addition by spectrophotometric analysis

Cholinesterase = Cholinesterase (Equus caballus, UniProt P81908)
Description: Inhibition of equine serum BuChE using acetylthiocholine iodide as substrate preincubated for 15 mins followed by substrate addition by spectrophotometric analysis

[1] = target: Amyloid-beta precursor protein (Homo sapiens) (UniProt P05067); assay: Inhibition of self-mediated aggregation of amyloid beta (1 to 42 residues) (unknown origin) at 20 uM after 48 hrs by Thioflavin T fluorescence assay relative to control
Chain of Amyloid-beta precursor protein (Homo sapiens) (P05067 whole entry, the tested form may be a part): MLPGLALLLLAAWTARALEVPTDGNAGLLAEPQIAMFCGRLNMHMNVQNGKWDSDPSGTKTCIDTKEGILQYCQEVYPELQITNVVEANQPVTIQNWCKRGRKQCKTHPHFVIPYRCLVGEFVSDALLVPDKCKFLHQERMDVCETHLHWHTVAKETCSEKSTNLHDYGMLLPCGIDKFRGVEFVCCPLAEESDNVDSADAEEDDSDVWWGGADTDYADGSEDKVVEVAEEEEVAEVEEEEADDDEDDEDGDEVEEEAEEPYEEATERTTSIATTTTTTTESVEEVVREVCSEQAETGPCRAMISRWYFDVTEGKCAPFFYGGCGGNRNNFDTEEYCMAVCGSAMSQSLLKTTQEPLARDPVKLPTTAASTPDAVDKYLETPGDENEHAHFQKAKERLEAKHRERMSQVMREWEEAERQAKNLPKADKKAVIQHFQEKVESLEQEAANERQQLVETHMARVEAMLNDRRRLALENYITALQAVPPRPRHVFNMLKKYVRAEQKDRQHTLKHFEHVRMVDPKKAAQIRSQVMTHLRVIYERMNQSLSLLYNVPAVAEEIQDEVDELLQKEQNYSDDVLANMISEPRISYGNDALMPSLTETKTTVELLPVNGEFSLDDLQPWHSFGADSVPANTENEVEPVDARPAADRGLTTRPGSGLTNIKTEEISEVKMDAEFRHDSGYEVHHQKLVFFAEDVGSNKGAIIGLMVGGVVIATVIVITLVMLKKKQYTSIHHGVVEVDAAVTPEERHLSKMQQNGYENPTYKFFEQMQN

[2] = Antioxidant activity assessed as trolox equivalent of APPH-induced radical scavenging activity at 0.117 to 10 uM preincubated for 10 mins followed by AAPH addition measured every minute for 90 mins by ORAC fluorescein assay; type: functional
[3] = target: Acetylcholinesterase (Electrophorus electricus) (UniProt O42275); assay: Mixed type inhibition of electric eel AChE using acetylthiocholine iodide as substrate preincubated for 15 mins followed by substrate addition by Lineweaver-Burk plot analysis
Chain of Acetylcholinesterase (Electrophorus electricus) (O42275 24-633 limits assumed): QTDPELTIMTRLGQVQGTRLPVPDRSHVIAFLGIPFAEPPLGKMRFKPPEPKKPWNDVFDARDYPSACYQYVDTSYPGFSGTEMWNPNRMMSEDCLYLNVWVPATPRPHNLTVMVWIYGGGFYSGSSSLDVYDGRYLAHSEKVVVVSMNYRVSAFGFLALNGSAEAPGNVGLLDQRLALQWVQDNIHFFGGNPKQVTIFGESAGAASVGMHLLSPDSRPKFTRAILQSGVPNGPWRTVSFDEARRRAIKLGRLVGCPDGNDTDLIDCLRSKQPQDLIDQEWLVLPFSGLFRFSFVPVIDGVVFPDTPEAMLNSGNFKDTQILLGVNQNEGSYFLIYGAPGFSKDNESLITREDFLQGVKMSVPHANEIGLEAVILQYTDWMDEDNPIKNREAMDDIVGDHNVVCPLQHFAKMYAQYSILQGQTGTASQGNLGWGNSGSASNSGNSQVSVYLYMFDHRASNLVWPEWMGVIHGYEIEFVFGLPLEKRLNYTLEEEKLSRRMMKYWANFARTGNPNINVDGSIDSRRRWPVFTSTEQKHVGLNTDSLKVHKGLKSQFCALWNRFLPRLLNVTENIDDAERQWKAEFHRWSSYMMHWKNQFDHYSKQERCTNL

[4] = Metal chelating activity of compound assessed as compound-Cu2+ complex formation at 20 uM after 30 mins by UV-Vis spectrophotometric analysis; type: functional
[5] = Metal chelating activity of compound assessed as compound-Fe2+ complex formation at 20 uM after 30 mins by UV-Vis spectrophotometric analysis; type: functional
[6] = Metal chelating activity of compound assessed as compound-Zn2+ complex formation at 20 uM after 30 mins by UV-Vis spectrophotometric analysis; type: functional
[7] = Permeability of the compound at […] after 10 hrs by PAMPA; type: physicochemical; conditions: read-out: permeability

Chain of Cholinesterase (P81908 whole entry, the tested form may be a part): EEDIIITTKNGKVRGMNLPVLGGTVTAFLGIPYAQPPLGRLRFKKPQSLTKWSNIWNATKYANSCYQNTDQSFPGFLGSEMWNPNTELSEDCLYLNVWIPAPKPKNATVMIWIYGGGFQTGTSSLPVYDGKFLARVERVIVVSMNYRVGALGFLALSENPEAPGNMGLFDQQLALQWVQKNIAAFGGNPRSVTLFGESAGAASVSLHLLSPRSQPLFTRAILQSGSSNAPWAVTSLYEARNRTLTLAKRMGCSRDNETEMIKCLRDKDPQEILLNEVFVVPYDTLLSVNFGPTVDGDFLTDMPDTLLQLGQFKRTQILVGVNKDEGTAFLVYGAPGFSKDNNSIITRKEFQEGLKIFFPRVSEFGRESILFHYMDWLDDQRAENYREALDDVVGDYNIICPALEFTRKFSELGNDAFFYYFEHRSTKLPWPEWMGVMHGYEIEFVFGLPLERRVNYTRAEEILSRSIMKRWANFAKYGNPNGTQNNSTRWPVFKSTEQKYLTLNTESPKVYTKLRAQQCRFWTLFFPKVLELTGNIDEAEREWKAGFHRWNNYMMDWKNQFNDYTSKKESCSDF
Chain of Acetylcholinesterase (O42275 whole entry): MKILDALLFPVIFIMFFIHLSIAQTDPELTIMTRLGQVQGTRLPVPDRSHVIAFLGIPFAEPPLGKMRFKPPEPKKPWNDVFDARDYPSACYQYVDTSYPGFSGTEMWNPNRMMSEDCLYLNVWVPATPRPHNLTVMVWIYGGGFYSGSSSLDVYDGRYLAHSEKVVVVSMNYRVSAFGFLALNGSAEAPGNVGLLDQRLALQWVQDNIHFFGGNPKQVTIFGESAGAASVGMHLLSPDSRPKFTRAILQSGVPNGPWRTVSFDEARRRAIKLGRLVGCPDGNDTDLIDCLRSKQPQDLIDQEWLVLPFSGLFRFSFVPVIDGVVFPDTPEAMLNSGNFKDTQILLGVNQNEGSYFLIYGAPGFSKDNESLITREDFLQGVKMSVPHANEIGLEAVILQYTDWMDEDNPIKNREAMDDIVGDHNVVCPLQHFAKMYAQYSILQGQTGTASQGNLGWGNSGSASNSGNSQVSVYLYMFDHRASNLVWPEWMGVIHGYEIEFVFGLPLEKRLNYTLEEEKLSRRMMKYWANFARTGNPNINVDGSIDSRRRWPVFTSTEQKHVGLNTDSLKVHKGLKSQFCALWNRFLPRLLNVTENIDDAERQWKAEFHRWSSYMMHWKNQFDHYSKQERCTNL

| Compound | IC50 (Acetylcholinesterase) [nM] | IC50 (Cholinesterase) [µM] | other results |
| --- | --- | --- | --- |
| COCOc1ccc(C(=O)C(CCC2CCN(Cc3cccc(C)c3)CC2)C(C)=O)cc1OC (stereo not given) | 340 | 3.09 | – |
| COc1ccc(C(=O)C(CCC2CCN(Cc3cccc(C)c3)CC2)C(C)=O)cc1OC (stereo not given) | 263 | 2 | – |
| COc1cc(C(=O)C(CCC2CCN(Cc3cccc(C)c3)CC2)C(C)=O)ccc1O (stereo not given) | 961 | 3.36 | – |
| COc1ccc(C(=O)CC(=O)CC2CCN(Cc3ccccc3)CC2)cc1O | 187 | 12.4 | inhibition [1]: 45.3%; Activity [2]: 3.07 equiv; inhibition [3]: Active; Activity [4]: Active; Activity [5]: Active; Activity [6]: inactive; Papp at 10 h [7]: 11.8 ×10⁻⁶ cm/s |
| COc1ccc(C(=O)CC(=O)CC2CCN(Cc3cccc(C)c3)CC2)cc1O | 228 | 9.78 | inhibition [1]: 30.4%; Activity [2]: 2.49 equiv; Papp at 10 h [7]: 11.3 ×10⁻⁶ cm/s |
| COc1ccc(C(=O)C(CCC2CCN(Cc3cccc(C)c3)CC2)C(C)=O)cc1O (stereo not given) | 621 | 16.6 | – |
| COc1ccc(C(=O)CC(=O)CC2CCN(Cc3ccccc3)CC2)cc1OC | 149 | 2.33 | inhibition [1]: 22%; Activity [2]: 1.1 equiv; Papp at 10 h [7]: 12.1 ×10⁻⁶ cm/s |
| COc1ccc(C(=O)C(CC2CCN(Cc3ccccc3)CC2)C(C)=O)cc1OC (stereo not given) | 2550 | 20.8 | – |
| COc1ccc(C(=O)C(CCC2CCN(Cc3ccccc3)CC2)C(C)=O)cc1 (stereo not given) | 517 | 1.64 | – |
| COc1cc(C(=O)C(CCC2CCN(Cc3ccccc3)CC2)C(C)=O)ccc1O (stereo not given) | 2050 | 15.6 | – |
| COc1ccc(C(=O)C(CCC2CCN(Cc3ccccc3)CC2)C(C)=O)cc1OC (stereo not given) | 373 | 2.82 | – |
| COc1cc(/C=C/C(=O)CC(=O)/C=C/c2ccc(O)c(OC)c2)ccc1O | – | – | Activity [2]: 2.52 equiv |
| COc1cccc(C(=O)C(CCC2CCN(Cc3cccc(C)c3)CC2)C(C)=O)c1 (stereo not given) | 555 | 1.85 | – |
| COc1cccc(C(=O)C(CC2CCN(Cc3ccccc3)CC2)C(C)=O)c1 (stereo not given) | 1780 | 14.4 | – |
